Legend:
Staphylococcus epidermis = assay: Biocide kill of planktonic cells and biofilm on vascular catheter (serum flow model); type: cell-based; conditions: 5 to 60 minutes; for biofilm kill (biocide concentration required to kill 50% of bacteria that grew in the biofilm): biofilm on vascular catheter, FIG. 15B; for planktonic cell kill (biocide concentration required to kill 100% of bacteria present as planktonic cells): planktonic cells on vascular catheter, FIG. 15A
From the text: (§1) A system as shown in FIG. 6 was used in this study. Serum and a biocide were placed in sealed bottles as the first fluid source 505 and the second fluid source 509, respectively. The fluid sources were connected to a pump 515 by conventional IV tubing. A second pump 531 was used to deliver the fluid mixture to the vascular catheter 3 positioned in the sampling apparatus 1.
(§2) Initially, only the first fluid source, serum inoculated with Acinetobacter baumanii (10×10^9 CFU/ml), was used to contaminate the catheter with planktonic cells. The inoculated fluid continuously flowed through IV tubing directly through the catheter for […] to form a layer of planktonic cells on the catheter. Fluid flow was then stopped and the tubing was then reconfigured as shown in FIG. 6 so that the second fluid source could be introduced. In these test runs, the first fluid source was inoculated with the same concentration of bacteria, and the second fluid source was a biocide (16-16,000 ppm) selected from hydrogen peroxide (H2O2), sodium hypochlorite (SHC), peracetic acid (PAA) and gluteraldehyde (GLT). The fluid mixture continuously flowed through the catheter for 5, 10, 15, 30, 45 or 60 minutes before fluid flow was discontinued to determine bacterial resistance of the planktonic cells on the catheter. In all, six runs were completed for each of four different biocides. After each run, the test catheter was then cut aseptically into 1 cm segments. The segments were transferred to test tubes containing one ml saline and the adherent cells were dislodged by sonication in an aquasonic device, vortexed for about one minute, and then counted on Tropic soya Agar. The number of viable cells were determined for each catheter and were compared to the number of viable cells in control samples (i.e., biocide-free serum) to calculate the biocide concentration required to kill 50% of the bacteria in the biofilm at the same time interval. Instead of saline, other appropriate buffer solutions can be used. In addition to plating cells on agar and counting the number of colonies, the amount of biofilm formed can be determined by a semiquantitive microtiter plate method. For example, adherent cells can be dislodged from test catheters as described above. The aliquots of solutions containing the cells from each catheter piece can then be added separately to wells of a 96-well tissue culture plate and incubated at 37° C. for 24 h. After several (e.g., three) washes with PBS, any remaining biofilm is stained with safranin O dye for 1 min and washed with PBS again. Optical density at 492 nm is determined with a 96-well plate spectrometer reader. For each time point, an aliquot without biocide is a positive control. Percent inhibition of biofilm accumulation can be determined from the formula (A492positive−A492biocide)/(A492positive−A492)×100%, Such plating methods are well known to one skilled in the art and could be modified as desired for analysis of the biofilm.
(§3) For determination of the bacterial resistance of the biofilm formed on the catheter, the method described above was repeated using the same conditions except that the inoculated fluid continuously flowed through the catheter for two hours before fluid flow was discontinued to form a biofilm on the catheter.
The experiment was repeated as described above, except that Staphylococcus epidermis (1×10^9 CFU/ml) was used to inoculate the serum.

Escherichia coli = assay: as above; type: cell-based; conditions: biofilm on vascular catheter, over all time periods (5 to 60 minutes), FIG. 12B
Pseudomonas aeruginosa = assay: as above; type: cell-based; conditions: 5 to 60 minutes; for biofilm kill (biocide concentration required to kill 50% of bacteria that grew in the biofilm): biofilm on vascular catheter, FIG. 16B; for planktonic cell kill (biocide concentration required to kill 100% of bacteria present as planktonic cells): planktonic cells on vascular catheter, FIG. 16A
From the text: as §1, §2, §3
The experiment was repeated as described above, except that Pseudomonas aeruginosa (1×10^9 CFU/ml) was used to inoculate the serum.

Burkholderia cepacia = assay: as above; type: cell-based; conditions: 5 to 60 minutes; for biofilm kill (biocide concentration required to kill 50% of bacteria that grew in the biofilm): biofilm on vascular catheter, FIG. 11B; for planktonic cell kill (biocide concentration required to kill 100% of bacteria present as planktonic cells): planktonic cells on vascular catheter, FIG. 11A
From the text: as §1, §2, §3
The experiment was repeated as described above, except that Burkholderia cepacia (1×10^9 CFU/ml) was used to inoculate the serum.

Acinetobacter baumanii = assay: as above; type: cell-based; conditions: planktonic cells on vascular catheter, 5 to 60 minutes, FIG. 10A
From the text: as §1
Initially, only the first fluid source, serum inoculated with Acinetobacter baumanii (10×10^9 CFU/ml), was used to contaminate the catheter with planktonic cells. The inoculated fluid continuously flowed through IV tubing directly through the catheter for […] to form a layer of planktonic cells on the catheter. […] The segments were transferred to test tubes containing one ml saline and the adherent cells were dislodged by sonication in an aquasonic device, vortexed for about one minute, and then counted on Tropic soya Agar. The number of viable cells were determined for each catheter and were compared to the number of viable cells in control samples (i.e., biocide-free serum) to calculate the biocide concentration required to kill 50% of the bacteria in the biofilm at the same time interval. […] In addition to plating cells on agar and counting the number of colonies, the amount of biofilm formed can be determined by a semiquantitive microtiter plate method. […]

[1] = system: Stenotrophomonas maltophilia; assay: as above; type: cell-based; conditions: 5 to 60 minutes; for biofilm kill (biocide concentration required to kill 50% of bacteria that grew in the biofilm): biofilm on vascular catheter, FIG. 17B; for planktonic cell kill (biocide concentration required to kill 100% of bacteria present as planktonic cells): planktonic cells on vascular catheter, FIG. 17A
From the text: as §1, §2, §3
The experiment was repeated as described above, except that Stenotrophomonas maltophilia (1×10^9 CFU/ml) was used to inoculate the serum.

[2] = system: methicillin resistant Staphylococcus aureus (MRSA); assay: as above; type: cell-based; conditions: biofilm on vascular catheter, 5 to 60 minutes, FIG. 14B
Enterococcus faecalis = assay: as above; type: cell-based; conditions: at 5 minutes of treatment; phase (planktonic or biofilm) not specified, FIGS. 13A-B
MRSA [3] = assay: Effect of albumin coating on colonization of MRSA in endotracheal tube model; type: cell-based, Staphylococcus aureus
From the text: (§4) A system as shown in FIG. 7 was used in this study. Artificial saliva was placed in a sealed bottle as the second fluid source 609. The first fluid source was provided by an oxygen tank used to saturate the artificial saliva with oxygen. A pump 631 was used to deliver the saliva to an endotracheal tube 3 positioned in the sampling apparatus 1. Each endotracheal tube was pretreated by coating the tube with undiluted bovine serum albumin, except for the untreated tube used as a control.
Initially, only the second fluid source, saliva inoculated with MRSA (1×10^9 CFU/ml), was used to contaminate the endotracheal tube. The inoculated fluid continuously flowed through IV tubing directly through the endotracheal tube for 60 minutes to form a biofilm on the tube. Fluid flow was then stopped and the tubing was then reconfigured as shown in FIG. 7 so that oxygen could be introduced. In these test runs, 100 mg/L mucin was added to the saliva. The fluid mixture continuously flowed through the catheter for 48 hours before fluid flow was discontinued to determine the effect of albumin on the colonization of MRSA on the endotracheal tube. […] The segments were transferred to test tubes containing one ml saline and the adherent cells were dislodges by sonication in an aquasonic device, vortexed for about one minute, and then counted on Tropic soya Agar. […]

MRSA [4] = assay: Mucin in controlling colonization of MRSA in endotracheal tube model; type: cell-based, Staphylococcus aureus; conditions: for log10 reduction of colonized MRSA: 48 hours flow, endotracheal tube
From the text: as §4, with “1.” for “1. Each endotracheal tube was pretreated by coating the tube with undiluted bovine serum albumin, except for the untreated tube used as a control.”
Initially, only the second fluid source, saliva inoculated with MRSA (1×10^9 CFU/ml), was used to contaminate the endotracheal tube. The inoculated fluid continuously flowed through IV tubing directly through the endotracheal tube for 60 minutes to form a biofilm on the tube. Fluid flow was then stopped and the tubing was then reconfigured as shown in FIG. 7 so that oxygen could be introduced. In these test runs, 100 mg/L mucin was added to the saliva. The fluid mixture continuously flowed through the catheter for 48 hours before fluid flow was discontinued to determine the effect of mucin on the bacterial resistance of the biofilm formed on the endotracheal tube. In all, four runs were completed at 0 mg/L mucin (control), 100 mg/L mucin, 500 mg/L mucin and 1000 mg/L mucin. After each run, the endotracheal tube was cut aseptically into one cm segments. The segments were transferred to test tubes containing one ml saline and the adherent cells were dislodges by sonication in an aquasonic device, vortexed for about one minute, and then counted on Tropic soya Agar.
The results of this study are shown in FIG. 18, which depicts the number of MRSA colony forming units per unit of surface area (CFU/cm^2) on the tube for each mucin concentration. […] The log10 reduction of colonized MRSA was 0.5, 3 (P=0.0001) and 3.5 (P=0.0001) at 100, 500 and 1000 mg/L of mucin, respectively. […] This pathogen plays a significant role in the onset of […] associated pneumonia by causing sustained tracheal colonization.

Which “biofilm kill (biocide concentration required to kill 50% of bacteria that grew in the biofilm)” value (Staphylococcus epidermis) does the source give for O=CCCCC=O [GLT, gluteraldehyde] here?
The value was “least effective”.

What about the “planktonic cell kill (biocide concentration required to kill 100% of bacteria present as planktonic cells)” value (Staphylococcus epidermis) of the same compound?
Its value is “performed similarly in planktonic cell kill and outperformed hydrogen peroxide”.

What about the “biofilm kill (biocide concentration required to kill 50% of bacteria that grew in the biofilm)” value (Escherichia coli) of the same compound?
Its value is “least effective”.

And the “biofilm kill (biocide concentration required to kill 50% of bacteria that grew in the biofilm)” value (Pseudomonas aeruginosa)?
The value was “PAA>SHC>GLT>hydrogen peroxide”.

What about the “planktonic cell kill (biocide concentration required to kill 100% of bacteria present as planktonic cells)” value (Pseudomonas aeruginosa) of the same compound?
The value was “performed comparably and were more effective than hydrogen peroxide and SHC”.

What about the “biofilm kill (biocide concentration required to kill 50% of bacteria that grew in the biofilm)” value (Burkholderia cepacia) of the same compound?
Its value is “nearly identical effect”.

And the “planktonic cell kill (biocide concentration required to kill 100% of bacteria present as planktonic cells)” value (Burkholderia cepacia)?
Its value is “performed comparably and were more effective than hydrogen peroxide”.

And the “planktonic cell kill (biocide concentration required to kill 100% of bacteria present as planktonic cells)” value (Acinetobacter baumanii)?
Its value is “most effective”.

What about the “biofilm kill (biocide concentration required to kill 50% of bacteria that grew in the biofilm)” value [1] of the same compound?
The value was “nearly identical effect”.

And the “planktonic cell kill (biocide concentration required to kill 100% of bacteria present as planktonic cells)” value [1]?
The value was “somewhat more effective in killing planktonic cells as compared to SHC or PAA and considerably more effective than hydrogen peroxide”.

What about the “biofilm kill (biocide concentration required to kill 50% of bacteria that grew in the biofilm)” value [2] of the same compound?
The value was “PAA>GLT>hydrogen peroxide>SHC”.

With OO [hydrogen peroxide] as the compound, how does the “effectiveness as compared to the other biocides” value (Enterococcus faecalis) read?
Its value is “relatively uneffective”.

What about the “biofilm kill (biocide concentration required to kill 50% of bacteria that grew in the biofilm)” value (Staphylococcus epidermis) of the same compound?
The value was “performed comparably”.

And the “planktonic cell kill (biocide concentration required to kill 100% of bacteria present as planktonic cells)” value (Staphylococcus epidermis)?
Its value is “SHC, PAA and GLT performed similarly in planktonic cell kill and outperformed hydrogen peroxide”.

What about the “biofilm kill (biocide concentration required to kill 50% of bacteria that grew in the biofilm)” value (Pseudomonas aeruginosa) of the same compound?
The value was “PAA>SHC>GLT>hydrogen peroxide”.

What about the “planktonic cell kill (biocide concentration required to kill 100% of bacteria present as planktonic cells)” value (Pseudomonas aeruginosa) of the same compound?
Its value is “PAA and GLT performed comparably and were more effective than hydrogen peroxide and SHC”.

What about the “biofilm kill (biocide concentration required to kill 50% of bacteria that grew in the biofilm)” value (Burkholderia cepacia) of the same compound?
Its value is “nearly identical effect”.

What about the “planktonic cell kill (biocide concentration required to kill 100% of bacteria present as planktonic cells)” value (Burkholderia cepacia) of the same compound?
The value was “SHC, PAA and GLT performed comparably and were more effective than hydrogen peroxide”.

And the “biofilm kill (biocide concentration required to kill 50% of bacteria that grew in the biofilm)” value [1]?
Its value is “nearly identical effect”.

And the “planktonic cell kill (biocide concentration required to kill 100% of bacteria present as planktonic cells)” value [1]?
Its value is “GLT was somewhat more effective in killing planktonic cells as compared to SHC or PAA and considerably more effective than hydrogen peroxide”.

What about the “biofilm kill (biocide concentration required to kill 50% of bacteria that grew in the biofilm)” value [2] of the same compound?
Its value is “PAA>GLT>hydrogen peroxide>SHC”.

Which “MRSA colonization of endotracheal tubes (in words)” value (MRSA [3]; albumin coating of endotracheal tube, FIG. 19) does the source give for bovine serum albumin here?
The value was “increased significantly”.

What about the “log10 increase of colonized cells” value (MRSA [3]; whole tube coating with albumin, 100 mg/L mucin in saliva, 48 hours flow, versus uncoated tube, P<0.0001) of the same compound?
The value was 2.4 log10.

With mucin as the compound, how does the “log10 reduction of colonized MRSA” value (MRSA [4]; 100 mg/L of mucin in oxygen-saturated artificial saliva) read?
Its value is 0.5 log10.

And the “log10 reduction of colonized MRSA” value (MRSA [4]; 500 mg/L of mucin in oxygen-saturated artificial saliva, P=0.0001)?
Its value is 3 log10.

What about the “log10 reduction of colonized MRSA” value (MRSA [4]; 1000 mg/L of mucin in oxygen-saturated artificial saliva, P=0.0001) of the same compound?
The value was 3.5 log10.

And the “colonization of MRSA on endotracheal tubes (in words)” value (MRSA [4]; mucin 100-1000 mg/L in artificial saliva, in vitro, FIG. 18)?
Its value is “effective in decreasing the colonization of MRSA on endotracheal tubes”.

Which results are given for OCl [SHC, sodium hypochlorite]?
biofilm kill (biocide concentration required to kill 50% of bacteria that grew in the biofilm) (Staphylococcus epidermis): performed comparably; planktonic cell kill (biocide concentration required to kill 100% of bacteria present as planktonic cells) (Staphylococcus epidermis): performed similarly in planktonic cell kill and outperformed hydrogen peroxide; biofilm kill (biocide concentration required to kill 50% of bacteria that grew in the biofilm) (Pseudomonas aeruginosa): PAA>SHC>GLT>hydrogen peroxide; planktonic cell kill (biocide concentration required to kill 100% of bacteria present as planktonic cells) (Pseudomonas aeruginosa): PAA and GLT performed comparably and were more effective than hydrogen peroxide and SHC; biofilm kill (biocide concentration required to kill 50% of bacteria that grew in the biofilm) (Burkholderia cepacia): nearly identical effect; planktonic cell kill (biocide concentration required to kill 100% of bacteria present as planktonic cells) (Burkholderia cepacia): performed comparably and were more effective than hydrogen peroxide; biofilm kill (biocide concentration required to kill 50% of bacteria that grew in the biofilm) [1]: nearly identical effect; planktonic cell kill (biocide concentration required to kill 100% of bacteria present as planktonic cells) [1]: GLT was somewhat more effective in killing planktonic cells as compared to SHC or PAA; biofilm kill (biocide concentration required to kill 50% of bacteria that grew in the biofilm) [2]: PAA>GLT>hydrogen peroxide>SHC
